Columns and labels:
HDAC1 = molecular target: T1, HDAC1 (Homo sapiens, UniProt Q13547); assay: HDAC1 fluorimetric enzyme inhibition assay (BPS Bioscience kit); format: biochemical; conditions: for Percentage HDAC1 activity: activity relative to control with no added inhibitor
T1 construct: FLAG; His; purchased BPS Bioscience
Protocol: (§1) These isoforms were chosen as they provide contrasting binding topographies, and HDAC6 in particular is closely linked with cancer metastasis (Figure 2).
(§2) 5. Enzyme Inhibition Assay
(§3) HDAC enzyme inhibition assays were carried out for as stated using commercially available assay kits (BPS Bioscience ) and undertaken in a 96 well plate. All measurements were carried out in triplicate and standard deviation errors are included in the plots. Human recombinant enzymes HDAC1 FLAG-tag His-tag and HDAC6 GST-tag were used. Potential inhibitors were dosed at the required concentration […]
(§4) NaCl, 2.7 mM KCl, 1 mM MgCl 2). A master mixture was made using assay buffer, acetylated substrate specific to HDAC enzyme (200 µM) and BSA (1 mg/mL) in a ratio of buffer:substrate:BSA (6:1:1) and 40 µL added to each well plate. Buffer (10 µL) was added to all blank wells and inhibitor (5 µL) was added to all potential inhibitor wells. HDAC enzymes were diluted based on their stated activity and 5 µL was added to all wells except blanks and the plate incubated at 37 °C for 30 min. Developer was added and the mixture incubated at room temperature for a further 15 min. Fluorescence was measured […]
(§5) Percentage HDAC activity is […]
(§6) determined by quantification of fluorescence relative to control, with no added inhibitor.
(§7) IC 50 values are calculated using least squares regression fitting to equation S2, where Y = calculated HDAC activity at given concentration, X = concentration of inhibitor, a = gradient scaling factor and SP = saturation point (i.e. 100% activity). Errors calculated using the formula for standard […]
(§8) Y = ୣ୶୮ (௔×(௑ିூ ఱబ)) × SP (S2)
(§9) All assays carried out in […]

HDAC6 = molecular target: T2, HDAC6 (Homo sapiens, UniProt Q9UBN7); assay: HDAC6 fluorimetric enzyme inhibition assay (BPS Bioscience kit); format: biochemical; conditions: for Percentage HDAC6 activity: activity relative to control with no added inhibitor
T2 construct: GST; purchased BPS Bioscience
T2 sequence (Q9UBN7 1-1215): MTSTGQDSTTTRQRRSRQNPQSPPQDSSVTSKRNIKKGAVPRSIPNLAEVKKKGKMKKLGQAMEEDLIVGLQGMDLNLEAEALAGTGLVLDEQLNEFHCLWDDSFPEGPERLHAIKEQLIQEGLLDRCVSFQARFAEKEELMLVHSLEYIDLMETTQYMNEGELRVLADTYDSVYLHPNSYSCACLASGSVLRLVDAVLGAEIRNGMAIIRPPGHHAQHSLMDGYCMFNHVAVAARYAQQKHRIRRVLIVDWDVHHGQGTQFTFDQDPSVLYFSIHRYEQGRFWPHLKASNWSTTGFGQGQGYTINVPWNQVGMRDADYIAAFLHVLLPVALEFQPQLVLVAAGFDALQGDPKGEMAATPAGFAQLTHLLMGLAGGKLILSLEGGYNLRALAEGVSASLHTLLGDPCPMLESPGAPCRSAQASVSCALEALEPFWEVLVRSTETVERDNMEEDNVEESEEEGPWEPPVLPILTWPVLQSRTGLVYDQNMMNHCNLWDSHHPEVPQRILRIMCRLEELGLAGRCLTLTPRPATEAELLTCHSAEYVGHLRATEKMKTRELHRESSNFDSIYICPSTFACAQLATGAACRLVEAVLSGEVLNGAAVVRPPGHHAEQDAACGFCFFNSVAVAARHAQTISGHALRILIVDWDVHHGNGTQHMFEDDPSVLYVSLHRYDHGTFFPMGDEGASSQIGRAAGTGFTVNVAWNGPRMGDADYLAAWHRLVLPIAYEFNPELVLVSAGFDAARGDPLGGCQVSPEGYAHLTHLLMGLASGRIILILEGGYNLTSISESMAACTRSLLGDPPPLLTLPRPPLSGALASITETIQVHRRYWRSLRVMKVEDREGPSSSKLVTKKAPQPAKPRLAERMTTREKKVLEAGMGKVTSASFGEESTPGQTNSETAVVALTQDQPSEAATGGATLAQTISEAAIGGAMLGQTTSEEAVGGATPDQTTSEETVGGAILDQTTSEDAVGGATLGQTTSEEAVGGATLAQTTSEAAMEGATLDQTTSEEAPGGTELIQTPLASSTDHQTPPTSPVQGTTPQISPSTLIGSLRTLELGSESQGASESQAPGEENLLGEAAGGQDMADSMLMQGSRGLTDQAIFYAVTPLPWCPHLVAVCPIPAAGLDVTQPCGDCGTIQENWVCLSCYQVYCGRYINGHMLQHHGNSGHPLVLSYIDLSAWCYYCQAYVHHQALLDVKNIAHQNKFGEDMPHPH
Protocol: as §1, §2, §3, §4, §5, §6, §7, §8, §9

[1] = tested on: MCF7 human breast adenocarcinoma cell line; assay: Cell viability assay (ChemoMetec Via1-Cassette); format: cell-based; conditions: MCF7, 96 h, triplicate
Protocol: viable cells. The experiments were carried out in triplicate.

T1 sequence (Q13547 whole entry): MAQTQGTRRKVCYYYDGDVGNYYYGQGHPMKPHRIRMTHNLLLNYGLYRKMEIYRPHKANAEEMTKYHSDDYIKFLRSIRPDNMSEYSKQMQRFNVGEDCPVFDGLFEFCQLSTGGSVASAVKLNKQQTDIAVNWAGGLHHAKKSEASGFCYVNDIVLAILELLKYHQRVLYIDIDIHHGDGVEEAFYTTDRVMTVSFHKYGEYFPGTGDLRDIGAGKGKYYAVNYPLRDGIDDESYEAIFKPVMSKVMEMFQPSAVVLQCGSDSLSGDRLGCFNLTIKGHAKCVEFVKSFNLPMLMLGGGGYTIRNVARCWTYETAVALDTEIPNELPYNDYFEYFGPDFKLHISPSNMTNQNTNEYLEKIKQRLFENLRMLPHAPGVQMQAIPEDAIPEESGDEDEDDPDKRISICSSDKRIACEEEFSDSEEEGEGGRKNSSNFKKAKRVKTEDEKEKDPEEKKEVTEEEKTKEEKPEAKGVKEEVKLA

`O=C(CCCCCCC(=O)Nc1cc2cccnc2c2ncccc12)NO` [L^1] was tested, and the “Percentage HDAC1 activity” value (HDAC1; 0.1 uM inhibitor) was 44 ± 7%, the “Percentage HDAC1 activity” value (HDAC1; 1 uM inhibitor) was 6 ± 13% and the IC50 (HDAC1; human recombinant HDAC1 FLAG-tag His-tag, triplicate) was 105 ± 15 nM. The “Percentage HDAC6 activity” value (HDAC6; 0.1 uM inhibitor) was 17 ± 3%, the “Percentage HDAC6 activity” value (HDAC6; 1 uM inhibitor) was 1.5 ± 1% and the IC50 (HDAC6; human recombinant HDAC6 GST-tag, triplicate) was 41 ± 2 nM. The “Selectivity Factor” value (HDAC6; ratio of the IC50 values for HDAC1 and HDAC6) was 2.6 and the EC50 [1] was 3000 ± 600 nM.

For `O=C(CCCCCCC(=O)Nc1ccccc1)NO` [SAHA, suberanilohydroxamic acid, reference compound], the “Percentage HDAC1 activity” value (HDAC1; 0.1 uM inhibitor) was 70 ± 15%, the “Percentage HDAC1 activity” value (HDAC1; 1 uM inhibitor) was 12 ± 7% and the “Percentage HDAC6 activity” value (HDAC6; 0.1 uM inhibitor) was 22 ± 1%. The “Percentage HDAC6 activity” value (HDAC6; 1 uM inhibitor) was 4 ± 2%.

From publication PMC7287671, “Anticancer Ruthenium Complexes with HDAC Isoform Selectivity” (Molecules, 2020)
